# Data from patent US8440666B2, “Pyridazinone compounds and P2X7 receptor inhibitors” (Nissan Chemical Industries, Ltd., priority 2007, dated 2013).
# Target: T1, Human P2X7 (hP2X7) receptor (Homo sapiens, UniProt Q99572)
# T1 construct: myc-His (from the pcDNA3.1/myc-HisA vector); expressed in transfected cells
# T1 sequence (Q99572 1-595): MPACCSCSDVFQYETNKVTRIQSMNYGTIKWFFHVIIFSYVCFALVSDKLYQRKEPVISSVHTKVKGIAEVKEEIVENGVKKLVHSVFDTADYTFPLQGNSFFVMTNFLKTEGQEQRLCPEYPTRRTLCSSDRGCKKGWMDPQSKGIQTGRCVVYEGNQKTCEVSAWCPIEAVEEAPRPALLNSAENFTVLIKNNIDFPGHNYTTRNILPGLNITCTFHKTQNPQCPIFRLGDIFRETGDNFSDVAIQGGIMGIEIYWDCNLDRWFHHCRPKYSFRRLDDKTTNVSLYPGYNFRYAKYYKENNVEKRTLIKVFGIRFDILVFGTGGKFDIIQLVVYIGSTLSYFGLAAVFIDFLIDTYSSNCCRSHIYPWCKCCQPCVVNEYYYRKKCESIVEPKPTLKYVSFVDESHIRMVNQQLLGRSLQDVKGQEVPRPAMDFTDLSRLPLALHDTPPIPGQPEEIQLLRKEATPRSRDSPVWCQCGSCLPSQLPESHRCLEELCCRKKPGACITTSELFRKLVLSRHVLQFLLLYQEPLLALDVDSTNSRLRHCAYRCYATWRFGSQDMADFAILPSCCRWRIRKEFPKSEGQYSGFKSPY
# Assay: Dye assay: BzATP-induced Yo-Pro-1 uptake in HEK293 cells stably expressing hP2X7
# Type: cell-based
# Settings: BzATP 0.1 mM, Yo-Pro-1 2 μM, 30 min pre-treatment, 90 min incubation
# Text: Human P2X7 (hP2×7) was cloned from a normal human brain total RNA library by reverse transcription (using SuperScript II (Invitrogen)) and PCR (using KOD-plus-(TOYOBO)). PCR primers were designed according to hP2X7 sequence registered in GENBANK with a putative amino acid sequence consisting of 595 amino acid residues. The PCR fragments were inserted into pcDNA3.1/myc-HisA vector (Invitrogen) and sequenced for confirmation.
# HEK293 cells were transfected with hP2×7/pcDNA3.1/myc-HisA by lipofection, and 1 day later, the cells were treated with 1 mg/mL G418, and resistant cells were selected by appropriately dilution. The resistant cells were cloned by reseeding at a low density.
# P2X7 receptor antagonists were screened by a dye uptake assay using HEK293 cells stably expressing hP2×7. Cells were plated on a type I collagen-coated black/clear bottom 96-well plate at 20000 cells/well and a day later, treated with varying concentrations of various test compounds for 30 minutes, then treated with a dye (Yo-Pro-1) (final concentration 2 μM) and BzATP (final concentration 0.1 mM) and incubated for 90 minutes. Then, the fluorescence (indicating the BzATP-induced Yo-Pro-1 uptake mediated by the P2X7 receptor) was measured with a microplate reader (excitation wavelength: 485 nm, emission wavelength: 535 nm). The % inhibition rates were calculated and plotted against the logarithms of the concentrations to determine IC50.
row,SMILES,IC50
1,COc1nnccc1C(C)NC(=O)Cn1ncc(N[C@@H]2C[C@@H]3C[C@H]([C@H]2C)C3(C)C)c(Cl)c1=O (stereo partly drawn) [compound 441],1.9 nM
2,CC(NC(=O)Cn1ncc(NC2CCC[C@@H]3CCCC[C@H]23)c(Cl)c1=O)c1ccncc1 (stereo partly drawn) [compound 453],16 nM
3,C[C@@H]1[C@H]2C[C@@H](C[C@H]1Nc1cnn(CC(=O)NCC3CCNC=C3S(C)(=O)=O)c(=O)c1Cl)C2(C)C (stereo partly drawn) [compound 447],42 nM

# Same assay, conditions: BzATP (0.1 mM)-induced Yo-Pro-1 uptake, compounds 30 min pre-treatment, 90 min incubation
row,SMILES,IC50
1,C[C@@H]1[C@H]2C[C@@H](C[C@H]1Nc1cnn(CC(=O)NCc3ccnnc3)c(=O)c1Cl)C2(C)C [compound 293],3.5 nM
2,COc1cc(OC)nc(Cn2ncc(N[C@@H]3C[C@@H]4C[C@H]([C@H]3C)C4(C)C)c(Br)c2=O)n1 [compound 89],35 nM
3,"C[C@@H]1[C@H]2C[C@@H](C[C@H]1Nc1cnn(C(F)C(=O)NCc3ccncc3)c(=O)c1Br)C2(C)C (stereo partly drawn) [Synthetic Example 405, [5-Bromo-6-oxo-4-{[(1R,2R,3R,5S)-2,6,6-trimethylbicyclo[3.1.1]hept-3-yl]amino}pyridazin-1(6H)-yl]-2-fluoro-N-(pyridin-4-ylmethyl)acetamide]",21 nM
4,C[C@@H]1[C@H]2C[C@@H](C[C@H]1Nc1cnn(CC(=O)Nc3cccnc3)c(=O)c1Cl)C2(C)C [compound 227],38 nM
5,C[C@@H](NC(=O)Cn1ncc(NC23CC4CC(CC2C4)C3)c(Cl)c1=O)c1ccncc1 [compound 347],5 nM
6,CC(NC(=O)Cn1ncc(N[C@@H]2C[C@@H]3C[C@@H](C3(C)C)[C@]2(C)O)c(Cl)c1=O)c1ccncc1Cl (stereo partly drawn) [compound 363],2.8 nM
7,C[C@@H]1[C@H]2C[C@@H](C[C@H]1Nc1cnn(CC(=O)NCc3cnccn3)c(=O)c1Br)C2(C)C [compound 14],21 nM
8,O=C(Cn1ncc(NC23CC4CC(CC2C4)C3)c(Br)c1=O)NCc1ccnnc1 [compound 345],34 nM
9,CN(C)c1cnccc1CNC(=O)Cn1ncc(N[C@@H]2C[C@@H]3C[C@@H](C3(C)C)[C@]2(C)O)c(Cl)c1=O [compound 362],3.1 nM
10,"C[C@@H]1[C@H]2C[C@@H](C[C@H]1Nc1cnn(CC(=O)NC(C(=O)O)c3ccccc3)c(=O)c1Br)C2(C)C (stereo partly drawn) [Synthetic Example 403, ({[5-Bromo-6-oxo-4-{[(1R,2R,3R,5S)-2,6,6-trimethylbicyclo[3.1.1]hept-3-yl]amino}pyridazin-1(6H)-yl]acetyl}amino)(phenyl)acetic Acid]",74 nM
11,CC(NC(=O)Cn1ncc(N[C@@H]2C[C@@H]3C[C@H]([C@H]2C)C3(C)C)c(Br)c1=O)c1ccccc1 (stereo partly drawn) [compound 23],34 nM
12,C[C@@H]1[C@H]2C[C@@H](C[C@H]1Nc1cnn(CC(=O)Nc3nc(-c4ccncc4)cs3)c(=O)c1Cl)C2(C)C [compound 226],84 nM
13,C[C@@H]1[C@H]2C[C@@H](C[C@H]1Nc1cnn(CC(=O)NCC3CCOCC3)c(=O)c1Cl)C2(C)C [compound 232],37 nM
14,CCC(NC(=O)Cn1ncc(N[C@@H]2C[C@@H]3C[C@H]([C@H]2C)C3(C)C)c(Cl)c1=O)c1ccnnc1 (stereo partly drawn) [compound 288],3 nM
15,C[C@@H]1[C@H]2C[C@@H](C[C@H]1Nc1cnn(CC(=O)NCc3ccc(O)cc3)c(=O)c1Br)C2(C)C [compound 205],58 nM
16,C[C@@H](NC(=O)Cn1ncc(NC2C3CC4CC(C3)CC2C4)c(Cl)c1=O)c1ccncc1 (stereo partly drawn) [compound 368],2.6 nM
17,CCC(NC(=O)Cn1ncc(NC2CCCCCCC2)c(Br)c1=O)c1ccncc1 (stereo not drawn) [compound 355],27 nM
18,Cc1noc(C)c1CNC(=O)Cn1ncc(N[C@@H]2C[C@@H]3C[C@H]([C@H]2C)C3(C)C)c(Br)c1=O [compound 212],30 nM
19,O=C(Cn1ncc(NC23CC4CC(CC(C4)C2)C3)c(Br)c1=O)NCc1ccncc1 [compound 51],16 nM
20,"C[C@@H]1[C@H]2C[C@@H](C[C@H]1Nc1cnn(C3(C(=O)NCc4ccncc4)CCC3)c(=O)c1Br)C2(C)C [Synthetic Example 420, 1-[5-Bromo-6-oxo-4-{[(1R,2R,3R,5S)-2,6,6-trimethylbicyclo[3.1.1]hept-3-yl]amino}pyridazin-1(6H)-yl]-N-(pyridin-4-ylmethyl)cyclobutanecarboxamide]",120 nM
21,CCC(NC(=O)Cn1ncc(NC23CC4CC(CC2C4)C3)c(Br)c1=O)c1ccncc1 (stereo not drawn) [compound 335],13 nM
22,CC(NC(=O)Cn1ncc(NC2C3CCCC2CCC3)c(Cl)c1=O)c1ccncn1 (stereo not drawn) [compound 374],6 nM
23,"CCC(NC(=O)Cn1ncc(N[C@@H]2C[C@@H]3C[C@H]([C@H]2C)C3(C)C)c(Cl)c1=O)C(N)=O (stereo partly drawn) [Synthetic Example 402, 2-({[5-Chloro-6-oxo-4-{[(1R,2R,3R,5S)-2,6,6-trimethylbicyclo[3.1.1]hept-3-yl]amino}pyridazin-1(6H)-yl]acetyl}amino)butanamide]",120 nM

row,SMILES,IC50
1,CCC(NC(=O)Cn1ncc(NC23CC4CC(CC2C4)C3)c(Cl)c1=O)c1ccncn1 (stereo not drawn) [compound 351],45 nM
2,C[C@@H]1[C@H]2C[C@@H](C[C@H]1Nc1cnn(CC(=O)NCc3ccc(C(F)(F)F)c(F)c3)c(=O)c1Br)C2(C)C [compound 183],230 nM
3,CC(NC(=O)Cn1ncc(NC23CC4CC(CC2C4)C3)c(Cl)c1=O)c1ccncc1Cl (stereo not drawn) [compound 354],2.6 nM
4,CC(NC(=O)Cn1ncc(NC2C3CCCC2CCC3)c(Br)c1=O)c1ccnnc1 (stereo not drawn) [compound 372],3.2 nM
5,C[C@@H]1[C@H]2C[C@@H](C[C@H]1Nc1cnn(CC(=O)NC(CCO)c3ccncc3)c(=O)c1Cl)C2(C)C (stereo partly drawn) [compound 253],36 nM
6,O=C(Cn1ncc(NCC23CC4CC(CC(C4)C2)C3)c(Br)c1=O)NCc1ccncc1 [compound 60],71 nM
7,O=C(Cn1ncc(NC2CCCCCCCCC2)c(Br)c1=O)NCc1ccncc1 [compound 326],160 nM
8,CCOc1nn(CC(=O)c2ccc(N(CC)CC)cc2)c(=O)c(Cl)c1N[C@@H]1C[C@@H]2C[C@H]([C@H]1C)C2(C)C [Synthetic Example 140],15 nM
9,CC(NC(=O)Cn1ncc(N[C@@H]2C[C@@H]3C[C@H]([C@H]2C)C3(C)C)c(Br)c1=O)c1ccc(F)cc1 (stereo partly drawn) [compound 178],30 nM
10,C[C@@H]1[C@H]2C[C@@H](C[C@H]1Nc1cnn(CC(=O)NCc3ccnc(F)c3)c(=O)c1Br)C2(C)C [compound 222],4.3 nM
11,C[C@@H]1[C@H]2C[C@@H](C[C@H]1NC(=O)Cn1ncc(N[C@@H]3C[C@@H]4C[C@H]([C@H]3C)C4(C)C)c(Br)c1=O)C2(C)C [compound 32],63 nM
12,C[C@@H]1[C@H]2C[C@@H](C[C@H]1Nc1cnn(CC(=O)Nc3cccc([N+](=O)[O-])c3)c(=O)c1Br)C2(C)C [compound 79],46 nM
13,C[C@@H]1[C@H]2C[C@@H](C[C@H]1Nc1cnn(CC(=O)NCc3ccccc3N(C)C)c(=O)c1Cl)C2(C)C [compound 247],32 nM
14,C[C@@H]1[C@H]2C[C@@H](C[C@H]1Nc1cnn(CC(=O)NCc3ccncc3)c(=O)c1Cl)C2(C)C [compound 135],4.2 nM
15,C[C@@H]1[C@H]2C[C@@H](C[C@H]1Nc1cnn(CC(=O)NC3CC3)c(=O)c1Br)C2(C)C [compound 19],38 nM
16,C[C@@H](NC(=O)Cn1ncc(NC2C3CCCC2CCC3)c(Cl)c1=O)c1ccncc1 (stereo partly drawn) [compound 369],2.1 nM
17,CONC(=O)Cn1ncc(N[C@@H]2C[C@@H]3C[C@H]([C@H]2C)C3(C)C)c(Br)c1=O [compound 202],140 nM
18,C[C@@H]1[C@H]2C[C@@H](C[C@H]1Nc1cnn(CC(=O)NCc3ccno3)c(=O)c1Br)C2(C)C [compound 127],19 nM
19,C[C@@H]1[C@H]2C[C@@H](C[C@H]1Nc1cnn(CC(=O)NCc3cscn3)c(=O)c1Br)C2(C)C [compound 106],44 nM
20,C[C@@H]1[C@H]2C[C@@H](C[C@H]1Nc1cnn(CC(=O)N[C@H](CO)c3ccccc3)c(=O)c1Cl)C2(C)C [compound 270],30 nM
21,COc1cc(CNC(=O)Cn2ncc(N[C@@H]3C[C@@H]4C[C@H]([C@H]3C)C4(C)C)c(Br)c2=O)ccn1 [compound 104],57 nM
22,"Cc1c(N[C@@H]2C[C@@H]3C[C@H]([C@H]2C)C3(C)C)cnn(CC(=O)NCc2ccncc2)c1=O [Synthetic Example 154, 2-{5-Methyl-6-oxo-4-[(1R,2R,3R,5S)-2,6,6-trimethylbicyclo[3.1.1]hept-3-ylamino]pyridazin-1(6H)-yl}-N-(pyridin-4-ylmethyl)acetamide]",22 nM
